In brackets after ≈: the same amount, converted by molar mass. Activity calls are given as the source filed them. The rule behind the calls is not given here.
Assays:
[1] = system: P388; assay: Cytotoxicity against mouse P388 cells by MTT assay; format: functional, cell-based
[2] = system: Candida albicans; assay: Antifungal activity against Candida albicans at 50 ug/mL; format: functional, organism-based
[3] = system: PANC-1; assay: Cytotoxicity against human PANC-1 cells by MTT assay; format: functional, cell-based

| SMILES | IC50 [1] [µg/mL] | Activity [2] | IC50 [3] [µg/mL] |
| --- | --- | --- | --- |
| Cc1cc2occ(C)c2cc2c(C)ccc1-2 [LINDERAZULENE] | 18.8 (≈ 89.4 µM) | inactive | – |
| COC(=O)c1ccc2c(C)cc3occ(C)c3cc1-2 | 2.7 (≈ 10.6 µM) | inactive | 18.7 (≈ 73.5 µM) |
| Cc1cc2occ(C)c2cc2c(C=O)ccc1-2 | 15.6 (≈ 69.6 µM) | inactive | – |

— ChEMBL document CHEMBL1142585, “Two new cytotoxic linderazulenes from a deep-sea gorgonian of the genus Paramuricea” (J Nat Prod, 2005)
